Data published in PubChem BioAssay AID248 (DTP/NCI, 2004).
Where “and” joins values, the source holds several entries; their conditions need not be identical. Equal values may be shown once. Inconclusive results and toxic doses are left out. Rule as the data show it: active = T/C of 150% or more; inactive = T/C below 125%.

Test system: L1210 leukemia ip in BDF1 mice, survival T/C
Assay: NCI In Vivo Anticancer Drug Screen. Data for tumor model L1210 Leukemia (intraperitoneal) in B6D2F1 (BDF1) mice
Conditions: endpoint: mean survival time, higher = longer survival
How it was run: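 Tumor cells were implanted, animals were treated, and survival was followed. The result divides the treated measurement by the vehicle-control measurement.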

[1] = dose: 100.0 mg/kg/injection, schedule: Q01DX009 (ip), vehicle: saline
[2] = dose: 200.0 mg/kg/injection, schedule: Q01DX009 (ip), vehicle: saline
[3] = dose: 100.0 mg/kg/injection, schedule: Q01DX009 (ip), vehicle: Klucel (hydroxypropylcellulose) (HPC)
[4] = dose: 200.0 mg/kg/injection, schedule: Q01DX009 (ip), vehicle: Klucel (hydroxypropylcellulose) (HPC)
[5] = dose: 400.0 mg/kg/injection, schedule: Q01DX009 (ip), vehicle: Klucel (hydroxypropylcellulose) (HPC)
[6] = dose: 100.0 mg/kg/injection, schedule: Q04DX003 (ip), vehicle: Klucel (hydroxypropylcellulose) (HPC)
[7] = dose: 200.0 mg/kg/injection, schedule: Q04DX003 (ip), vehicle: Klucel (hydroxypropylcellulose) (HPC)
[8] = dose: 400.0 mg/kg/injection, schedule: Q04DX003 (ip), vehicle: Klucel (hydroxypropylcellulose) (HPC)
[9] = dose: 50.0 mg/kg/injection, schedule: Q01DX009 (ip), vehicle: saline
[10] = dose: 100.0 mg/kg/injection, schedule: Q04DX003 (ip), vehicle: saline
[11] = dose: 100.0 mg/kg/injection, schedule: Q04DX002 (ip), vehicle: saline with Tween-80
[12] = dose: 100.0 mg/kg/injection, schedule: Q04DX002 (ip), vehicle: Klucel (hydroxypropylcellulose) (HPC)
[13] = dose: 200.0 mg/kg/injection, schedule: Q04DX002 (ip), vehicle: Klucel (hydroxypropylcellulose) (HPC)
[14] = dose: 400.0 mg/kg/injection, schedule: Q04DX002 (ip), vehicle: Klucel (hydroxypropylcellulose) (HPC)
[15] = dose: 200.0 mg/kg/injection, schedule: Q04DX003 (ip), vehicle: saline
[16] = dose: 400.0 mg/kg/injection, schedule: Q04DX003 (ip), vehicle: saline
[17] = dose: 100.0 mg/kg/injection, schedule: Q01DX001 (ip), vehicle: saline
[18] = dose: 200.0 mg/kg/injection, schedule: Q01DX001 (ip), vehicle: saline
[19] = dose: 400.0 mg/kg/injection, schedule: Q01DX001 (ip), vehicle: saline
[20] = dose: 50.0 mg/kg/injection, schedule: Q01DX009 (ip), vehicle: Klucel (hydroxypropylcellulose) (HPC)

Measured: T/C

CCn1cnc2c(SC)ncnc21
inactive: dose: 75.0 mg/kg/injection, schedule: Q01DX001 (ip), vehicle: acetone 101 % of control | dose: 150.0 mg/kg/injection, schedule: Q01DX001 (ip), vehicle: acetone 106 % of control | dose: 300.0 mg/kg/injection, schedule: Q01DX001 (ip), vehicle: acetone 108 % of control

CN(C)C(N)=S
inactive: [1] 91 % of control | [2] 100 % of control | dose: 400.0 mg/kg/injection, schedule: Q01DX009 (ip), vehicle: saline 100 % of control

CC(Cc1ccc2c(c1)OCO2)[N+](=O)[O-] (stereo not drawn)
inactive: dose: 150.0 mg/kg/injection, schedule: Q04DX003 (ip), vehicle: saline with Tween-80 102 % of control | dose: 300.0 mg/kg/injection, schedule: Q04DX003 (ip), vehicle: saline with Tween-80 100 % of control

O=C(O)CCC(CC(=O)O)c1ccccc1 (stereo not drawn)
inactive: [3] 97 % of control | [4] 96 % of control | [5] 93 % of control

CCC(C)C(NN)C(=O)O (stereo not drawn)
inactive: dose: 12.0 mg/kg/injection, schedule: Q01DX Z (ip), vehicle: carboxymethylcellulose (CMC) 113 % of control | dose: 25.0 mg/kg/injection, schedule: Q01DX Z (ip), vehicle: carboxymethylcellulose (CMC) 112 % of control | dose: 50.0 mg/kg/injection, schedule: Q01DX Z (ip), vehicle: carboxymethylcellulose (CMC) 110 % of control | dose: 100.0 mg/kg/injection, schedule: Q01DX Z (ip), vehicle: carboxymethylcellulose (CMC) 118 % of control | dose: 200.0 mg/kg/injection, schedule: Q01DX015 (ip), vehicle: carboxymethylcellulose (CMC) 104 % of control

O=C1CC(C(=O)O)C(c2ccccc2F)O1 (stereo not drawn)
inactive: [6] 98 % of control | [7] 101 % of control | [8] 103 % of control

O=[N+]([O-])c1ccc(Oc2ccccc2[N+](=O)[O-])cc1
inactive: dose: 222.0 mg/kg/injection, schedule: Q01DX Z (ip), vehicle: methylcellulose (MC) 95 % of control | dose: 333.0 mg/kg/injection, schedule: Q01DX Z (ip), vehicle: methylcellulose (MC) 95 % of control | dose: 500.0 mg/kg/injection, schedule: Q01DX Z (ip), vehicle: methylcellulose (MC) 86 % of control

CCN(CC)CCOc1c(C(C)C)cccc1C(C)C
inactive: dose: 12.5 mg/kg/injection, schedule: Q01DX009 (ip), vehicle: saline 101 % of control | dose: 25.0 mg/kg/injection, schedule: Q01DX009 (ip), vehicle: saline 108 % of control | [9] 108 % of control and 89 % of control | [10] 117 % of control

CCOC(=O)c1cnc(C)nc1Nc1ccccc1
inactive: [6] 97 % of control | [7] 103 % of control | [8] 108 % of control

C#CCN(CC#C)c1ccccc1
inactive: [11] 100 % of control | dose: 200.0 mg/kg/injection, schedule: Q04DX002 (ip), vehicle: saline with Tween-80 93 % of control | dose: 400.0 mg/kg/injection, schedule: Q04DX002 (ip), vehicle: saline with Tween-80 97 % of control

OCCCN1CCN(CCCC2c3ccccc3Sc3ccc(Cl)cc32)CC1 (stereo not drawn)
inactive: dose: 25.0 mg/kg/injection, schedule: Q04DX003 (ip), vehicle: saline 102 % of control | dose: 50.0 mg/kg/injection, schedule: Q04DX003 (ip), vehicle: saline 109 % of control

Clc1ccc(Nc2cc[n+]3ccccc3c2)cc1Cl
inactive: dose: 25.0 mg/kg/injection, schedule: Q01DX001 (ip), vehicle: Klucel (hydroxypropylcellulose) (HPC) 98 % of control | dose: 50.0 mg/kg/injection, schedule: Q01DX001 (ip), vehicle: Klucel (hydroxypropylcellulose) (HPC) 96 % of control | dose: 100.0 mg/kg/injection, schedule: Q01DX001 (ip), vehicle: Klucel (hydroxypropylcellulose) (HPC) 102 % of control and 117 % of control

C/C=C/C(=O)OCCN(CC)CC
inactive: [9] 103 % of control | [1] 103 % of control | [2] 100 % of control

O=C1CCS(=O)O1 (stereo not drawn)
inactive: [12] 100 % of control | [13] 95 % of control | [14] 89 % of control

Cc1ccc(S(=O)(=O)N2CCCCC2)cc1
inactive: [10] 91 % of control | [15] 96 % of control | [16] 97 % of control

CCCCNc1nc(N)nc(N)c1[N+](=O)[O-]
inactive: [6] 103 % of control | [7] 98 % of control | [8] 101 % of control

CCCc1nc2c(nc1C)C(=O)C=CC2=O
inactive: dose: 9.5 mg/kg/injection, schedule: Q01DX001 (ip), vehicle: other 98 % of control

CN(C)c1cc2c3ccccc3ccc2c2ccccc12
inactive: dose: 100.0 mg/kg/injection, schedule: Q01DX001 (ip), vehicle: olive oil, sesame oil, peanut oil 100 % of control | dose: 200.0 mg/kg/injection, schedule: Q01DX001 (ip), vehicle: olive oil, sesame oil, peanut oil 103 % of control | dose: 400.0 mg/kg/injection, schedule: Q01DX001 (ip), vehicle: olive oil, sesame oil, peanut oil 102 % of control

COC(=O)C1CCCCC1NC(C)=O (stereo not drawn)
inactive: [17] 102 % of control | [10] 114 % of control | [18] 110 % of control | [15] 100 % of control | [19] 103 % of control | [16] 103 % of control

Cc1ccc(CNc2ccc(Br)cc2)cc1
inactive: [3] 96 % of control | [6] 101 % of control | [4] 99 % of control | [7] 102 % of control | [5] 94 % of control | [8] 101 % of control

ClC(C[n+]1ccccc1)c1ccccc1 (stereo not drawn)
inactive: [17] 100 % of control

Cc1ccc2c(c1)NP(=O)(c1ccccc1)S2 (stereo not drawn)
inactive: dose: 25.0 mg/kg/injection, schedule: Q04DX002 (ip), vehicle: saline with Tween-80 89 % of control | dose: 50.0 mg/kg/injection, schedule: Q04DX002 (ip), vehicle: saline with Tween-80 92 % of control | [11] 102 % of control and 89 % of control

CC(=O)C1(c2ccccc2)OC1c1ccccc1 (stereo not drawn)
inactive: [20] 96 % of control | [3] 112 % of control | [6] 90 % of control | [4] 96 % of control | [7] 95 % of control

O=C(O)/C(=C\c1ccc([N+](=O)[O-])cc1)CCc1ccccc1
inactive: [3] 91 % of control | [4] 92 % of control | [5] 92 % of control

Sc1ccccc1Cl
inactive: dose: 12.5 mg/kg/injection, schedule: Q01DX009 (ip), vehicle: Klucel (hydroxypropylcellulose) (HPC) 97 % of control | dose: 25.0 mg/kg/injection, schedule: Q01DX009 (ip), vehicle: Klucel (hydroxypropylcellulose) (HPC) 95 % of control | dose: 25.0 mg/kg/injection, schedule: Q04DX003 (ip), vehicle: Klucel (hydroxypropylcellulose) (HPC) 103 % of control | [20] 97 % of control | dose: 50.0 mg/kg/injection, schedule: Q04DX003 (ip), vehicle: Klucel (hydroxypropylcellulose) (HPC) 103 % of control | [6] 102 % of control

CCOC(=O)c1cc(C)n(-c2ccc(C(=O)O)cc2)c1C
inactive: [20] 97 % of control | [3] 95 % of control | [6] 98 % of control | [4] 95 % of control | [7] 91 % of control

Cc1no[n+]([O-])c1NC(=O)OCc1ccccc1
inactive: [12] 98 % of control | [13] 102 % of control | [14] 98 % of control

O=C(Nc1cccc(Cl)c1)Nc1cccc(Cl)c1
inactive: [3] 94 % of control | [6] 102 % of control | [4] 108 % of control | [7] 93 % of control | [5] 101 % of control | [8] 100 % of control

CCCCCCCCCCCCCCCCCC(=O)[O][Pb]([CH3])([CH3])[CH3]
inactive: dose: 25.0 mg/kg/injection, schedule: Q04DX002 (ip), vehicle: Klucel (hydroxypropylcellulose) (HPC) 97 % of control

N/C(N=Nc1ccccc1)=N\[N+](=O)[O-]
inactive: [6] 100 % of control | [7] 105 % of control | [8] 86 % of control

O=C(O)[C@@H]1C[C@@H](O)CN1
inactive: [17] 87 % of control | [18] 100 % of control | [19] 94 % of control

CCOc1ccccc1/C=N\NC(=S)Nc1ccc2cn[nH]c2c1
inactive: dose: 50.0 mg/kg/injection, schedule: Q01DX001 (ip), vehicle: carboxymethylcellulose (CMC) 96 % of control | dose: 100.0 mg/kg/injection, schedule: Q01DX001 (ip), vehicle: carboxymethylcellulose (CMC) 100 % of control | dose: 200.0 mg/kg/injection, schedule: Q01DX001 (ip), vehicle: carboxymethylcellulose (CMC) 102 % of control | dose: 400.0 mg/kg/injection, schedule: Q01DX001 (ip), vehicle: carboxymethylcellulose (CMC) 94 % of control
